Data published in patent publication US20260234165A1, “MACROCYCLIC COMPOUNDS, PREPARATION METHOD THEREFOR, AND USE THEREOF” (GENFLEET THERAPEUTICS (SHANGHAI) INC., priority 2004, published 2026).
pIC50: −log10 of the molar value. Where a name gives a salt, the structure may show the parent alone. Read-outs that look alike come from different tables or passages of the source.

Legend:
Type in all cases: cell-based, human
[1] = system: p-ERK in NCI-H441 cells (KRAS G12V mutation); assay: Cell p-ERK assay (HTRF) in NCI-H441 cells; conditions: NCI-H441 cells, 3 h compound incubation, HTRF p-ERK T202/Y204, read-out: H441 p-ERK IC50
Procedure, shortened: (§1)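 Phospho-ERK inhibition measured by HTRF after a 3 h compound exposure (0.1% DMSO) in overnight-seeded cells; IC50 derived from dose-response fitting.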

[2] = system: p-ERK in AsPC-1 cells (KRAS G12D mutation); assay: Cell p-ERK assay (HTRF) in AsPC-1 cells; conditions: AsPC-1 cells, 3 h compound incubation, HTRF p-ERK T202/Y204, read-out: AsPC-1 p-ERK IC50
Procedure, shortened: as §1

[3] = system: AsPC-1 cells (KRAS G12D mutation); assay: 3D cell proliferation assay (CellTiter Glo-3D), AsPC-1; conditions: medium with 2% FBS, read-out: AsPC-1 AP IC50
Procedure, shortened: (§2)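 800 cells/well (NCI-H441, […]; AsPC-1, KRAS G12D), low-serum RPMI-1640 (2% FBS), overnight attach; 3.16-fold serial dilutions added, 0.1% DMSO; 5 d, 37 °C; CellTiter-Glo 3D RLU; IC50, 4-parameter fit.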

NCI-H441 cells = assay: 3D cell proliferation assay (CellTiter Glo-3D), NCI-H441; conditions: medium with 2% FBS, read-out: H441 AP IC50
Procedure, shortened: as §2

[4] = 3D cell proliferation (CellTiter Glo-3D)
[5] = Homo sapiens, ASPC1, 3D cell proliferation (CellTiter Glo-3D)
[6] = Homo sapiens, NCI-H441, 3D cell proliferation (CellTiter Glo-3D)

Compound | pIC50 [1] | pIC50 [2] | pIC50 [3, 4] | pIC50 (NCI-H441 cells; [4]) | pIC50 ([1]; Homo sapiens, NCI-H441, 3 h) | pIC50 ([2]; Homo sapiens, ASPC1, 3 h) | pIC50 [3, 5] | pIC50 (NCI-H441 cells; [6])
CCn1c(-c2cc(C#CCN3CCCOCC3)cnc2[C@H](C)OC)c2c3cc(ccc31)-c1csc(n1)C[C@H](NP(=O)(CC)CC)C(=O)N1CCC[C@H](N1)C(=O)OCC(C)(C)C2 (atropisomer, axis not shown; (Ra)) [Compound Z920, N-((6^3S,4S,Z)—(Ra)-1^2-(5-(3-(1,4-oxazepan-4-yl)prop-1-yn-1-yl)-2-((S)-1-methoxyethyl)pyridin-3-yl)-1^1-ethyl-10,10-dimethyl-5,7-dioxo-6^1,6^2,6^3,6^4,6^5,6^6-hexahydro-1^1H-8-oxa-2(4,2)-thiazola-1(5,3)-indola-6(1,3)-pyridazinacycloundecaphane-4-yl)-P,P-diethylphosphoramidite formate] | 8.03 | 7.47 | 7.42 | 7.82 | – | – | – | –
CCn1c(-c2cc(C#CCN3CCCOCC3)cnc2[C@H](C)OC)c2c3cc(ccc31)-c1csc(n1)C[C@H](NC(=O)C(C)(C)CC)C(=O)N1CCC[C@H](N1)C(=O)OCC(C)(C)C2 (atropisomer, axis not shown; (Ra)) [Compound Z812, N-((6^3S,4S,Z)—(Ra)-1^2-(5-(3-(1,4-oxazepan-4-yl)prop-1-yn-1-yl)-2-((S)-1-methoxyethyl)pyridin-3-yl)-1^1-ethyl-10,10-dimethyl-5,7-dioxo-6^1,6^2,6^3,6^4,6^5,6^6-hexahydro-1^1H-8-oxa-2(4.2)-thiazola-1(5,3)-indola-6(1,3)-pyridazinacycloundecaphane-4-yl)-2.2-dimethylbutanamide] | – | – | – | – | 8.97 | 8.77 | 8.45 | 8.79
C=C1CN(CC#Cc2cnc([C@H](C)OC)c(-c3c4c5cc(ccc5n3CC)-c3csc(n3)C[C@H](NC(=O)[C@H]3[C@H](C)[C@@H]3C)C(=O)N3CCC[C@H](N3)C(=O)OCC(C)(C)C4)c2)C1 [Compound Z1034, (1 r,2R,3S)—N-((6^3S,4S,Z)-1^1-ethyl-1^2-(2-((S)-1-methoxyethyl)-5-(3-(3-methyleneazetidine-1-yl)prop-1-Sn-1-yl)pyridin-3-yl)-10,10-dimethyl-5,7-dioxo-6^1,6^2,6^3,6^4,6^5,6^6-hexahydro-1^1H-8-oxa-2(4.2)-thiazola-1(5,3)-indola-6(1.3)-pyridazinacycloundecaphane-4-yl)-2,3-dimethylcyclopropane-1-carboxamide] | 9.54 | 9.48 | 9.70 | 9.55 | – | – | – | –
CCn1c(-c2cc(C3(C(=O)N4CCN(C)CC4)CC3)cnc2[C@H](C)OC)c2c3cc(ccc31)-c1csc(n1)C[C@H](NC(=O)[C@H]1[C@H](C)[C@@H]1C)C(=O)N1CCC[C@H](N1)C(=O)OCC(C)(C)C2 [Compound Z75, (1r,2R,3S)—N-((6^3S,4S,Z)-1^1-ethyl-1^2-(2-((S)-1-methoxyethyl)-5-(1-(4-methylpiperazine-1-carbonyl)cyclopropyl)pyridin-3-yl)-10,10-dimethyl-5,7-dioxo-6^1,6^2,6^3,6^4,6^5,6^6-hexahydro-1^1H-8-oxa-2(4,2)-thiazola-1(5,3)-indola-6(1,3)-pyridazinacycloundecaphane-4-yl)-2,3-dimethylcyclopropane-1-carboxamide] | – | – | – | – | 7.73 | 7.41 | 7.25 | 7.71
CCn1c(-c2cc(OCC3(N4CCC4)CC3)cnc2[C@H](C)OC)c2c3cc(ccc31)-c1csc(n1)C[C@H](NC(=O)[C@H]1[C@H](C)[C@@H]1C)C(=O)N1CCC[C@H](N1)C(=O)OCC1(CC1)C2 [Compound Z333] | – | – | – | – | 7.96 | 7.73 | 7.53 | 7.73
CCn1c(-c2cc(OCC(C)(C)N3CCS(=O)(=O)CC3)cnc2[C@H](C)OC)c2c3cc(ccc31)-c1csc(n1)C[C@H](NC(=O)[C@H]1[C@H](C)[C@@H]1C)C(=O)N1CCC[C@H](N1)C(=O)OCC(C)(C)C2 [Compound Z667A] | 8.80 | 8.59 | 8.53 | 8.88 | – | – | – | –
